Laboratory results: the supplement of paper PMC11451515

System: NOMO1
Assay: cell viability relative to DMSO control; higher = less cytotoxic
Conditions: 48 h
How it was run: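 Viability was expressed as a per-plate percentage of DMSO wells, with cell-free wells as background. Leukemia cells (NOMO1 or SEM at 500 cells/well, P12-Ichikawa at 1000 cells/well) were adapted for at least four passages in each medium and seeded in 1536-well plates (5 μl). Library compounds in DMSO were pin-dosed over an 11-point threefold series from 47 μM to 0.79 nM, and CellTiter-Glo One luminescence was read after 48 h at 37°C.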

[1] = HPLM + 10% dialyzed FBS, 0.000781 µM
[2] = HPLM + 10% dialyzed FBS, 0.00234 µM
[3] = HPLM + 10% dialyzed FBS, 0.00702 µM
[4] = HPLM + 10% dialyzed FBS, 0.0211 µM
[5] = HPLM + 10% dialyzed FBS, 0.0632 µM
[6] = HPLM + 10% dialyzed FBS, 0.19 µM
[7] = HPLM + 10% dialyzed FBS, 0.569 µM
[8] = HPLM + 10% dialyzed FBS, 1.71 µM
[9] = HPLM + 10% dialyzed FBS, 5.12 µM
[10] = HPLM + 10% dialyzed FBS, 15.4 µM
[11] = HPLM + 10% dialyzed FBS, 46.1 µM
[12] = RPMI 5 mM glucose + 10% FBS, 0.000781 µM
[13] = RPMI 5 mM glucose + 10% FBS, 0.00234 µM
[14] = RPMI 5 mM glucose + 10% FBS, 0.00702 µM
[15] = RPMI 5 mM glucose + 10% FBS, 0.0211 µM
[16] = RPMI 5 mM glucose + 10% FBS, 0.0632 µM
[17] = RPMI 5 mM glucose + 10% FBS, 0.19 µM
[18] = RPMI 5 mM glucose + 10% FBS, 0.569 µM
[19] = RPMI 5 mM glucose + 10% FBS, 1.71 µM
[20] = RPMI 5 mM glucose + 10% FBS, 5.12 µM
[21] = RPMI 5 mM glucose + 10% FBS, 15.4 µM
[22] = RPMI 5 mM glucose + 10% FBS, 46.1 µM
[23] = RPMI 5 mM glucose + 10% dialyzed FBS, 0.000781 µM
[24] = RPMI 5 mM glucose + 10% dialyzed FBS, 0.00234 µM
[25] = RPMI 5 mM glucose + 10% dialyzed FBS, 0.00702 µM
[26] = RPMI 5 mM glucose + 10% dialyzed FBS, 0.0211 µM
[27] = RPMI 5 mM glucose + 10% dialyzed FBS, 0.0632 µM
[28] = RPMI 5 mM glucose + 10% dialyzed FBS, 0.19 µM
[29] = RPMI 5 mM glucose + 10% dialyzed FBS, 0.569 µM
[30] = RPMI 5 mM glucose + 10% dialyzed FBS, 1.71 µM
[31] = RPMI 5 mM glucose + 10% dialyzed FBS, 5.12 µM
[32] = RPMI 5 mM glucose + 10% dialyzed FBS, 15.4 µM
[33] = RPMI 5 mM glucose + 10% dialyzed FBS, 46.1 µM

| SMILES | cell viability [1] [%] | cell viability [2] [%] | cell viability [3] [%] | cell viability [4] [%] | cell viability [5] [%] | cell viability [6] [%] | cell viability [7] [%] | cell viability [8] [%] | cell viability [9] [%] | cell viability [10] [%] | cell viability [11] [%] | cell viability [12] [%] | cell viability [13] [%] | cell viability [14] [%] | cell viability [15] [%] | cell viability [16] [%] | cell viability [17] [%] | cell viability [18] [%] | cell viability [19] [%] | cell viability [20] [%] | cell viability [21] [%] | cell viability [22] [%] | cell viability [23] [%] | cell viability [24] [%] | cell viability [25] [%] | cell viability [26] [%] | cell viability [27] [%] | cell viability [28] [%] | cell viability [29] [%] | cell viability [30] [%] | cell viability [31] [%] | cell viability [32] [%] | cell viability [33] [%] |
| --- | --- | --- | --- | --- | --- | --- | --- | --- | --- | --- | --- | --- | --- | --- | --- | --- | --- | --- | --- | --- | --- | --- | --- | --- | --- | --- | --- | --- | --- | --- | --- | --- | --- |
| CC1=C(/C=C/C(C)=C/C=C/C(C)=C\C(=O)O)C(C)(C)CCC1 | 85.3 | 99.5 | 85.6 | 92.5 | 105 | 96.2 | 97.1 | 84.3 | 84.2 | 83.4 | 97.4 | 75.9 | 82.4 | 78.7 | 86.3 | 89.5 | 97.2 | 93.6 | 84.1 | 84.3 | 86.6 | 80.5 | 82 | 90.6 | 86 | 102 | 93.2 | 87.9 | 95.1 | 87.2 | 76.6 | 87.1 | 77.3 |
| Cc1cc(OCCC[S+](C)(=O)[O-])cc(C)c1-c1cccc(COc2ccc3c(c2)OC[C@H]3CC(=O)O)c1 | 93.7 | 112 | 98.7 | 91.3 | 108 | 97.8 | 103 | 89.9 | 106 | 92.8 | 67.1 | 96.9 | 95 | 99.2 | 102 | 92.4 | 99.2 | 107 | 100 | 98 | 90.6 | 57.3 | 99.2 | 96.7 | 95.9 | 98.4 | 96.1 | 92.6 | 93.7 | 86.4 | 85.3 | 89.3 | 47.1 |
| CC(=O)N[C@@H]1[C@@H](NC(N)=N)\C=C(/O[C@H]1[C@H](O)[C@H](O)CO)C(O)=O | 84.9 | 105 | 116 | 119 | 127 | 119 | 122 | 120 | 122 | 115 | 101 | 102 | 114 | 106 | 111 | 113 | 113 | 118 | 120 | 111 | 121 | 113 | 100 | 106 | 114 | 121 | 117 | 118 | 115 | 116 | 106 | 134 | 124 |
| O=S(=O)([O-])CCS.[Na+] | 100 | 141 | 124 | 131 | 130 | 112 | 123 | 44.1 | 38.9 | 46.4 | 37.5 | – | – | – | – | – | – | – | – | – | – | – | – | – | – | – | – | – | – | – | – | – | – |
| Cc1cn([C@H]2C=C[C@@H](CO)O2)c(=O)[nH]c1=O | 105 | 101 | 116 | 123 | 101 | 114 | 125 | 115 | 96.4 | 108 | 107 | 88.6 | 94.3 | 100 | 106 | 98.7 | 111 | 111 | 102 | 116 | 120 | 115 | 106 | 124 | 118 | 112 | 125 | 123 | 122 | 121 | 113 | 129 | 131 |
| O=C(Nc1nnc(-c2ccco2)o1)c1cc(-c2ccccc2)nc2ccccc12 | 92.3 | 103 | 117 | 124 | 118 | 120 | 114 | 114 | 65.5 | 18.7 | 6.68 | 107 | 101 | 99.9 | 105 | 100 | 101 | 93 | 111 | 98.3 | 99.3 | 13.7 | 102 | 89.3 | 107 | 96.2 | 103 | 112 | 93.4 | 117 | 118 | 106 | 13.5 |
| CC[C@@H]1[C@@H](C)O[C@@](O)([C@@H](C)[C@H](O)[C@H](C)[C@H]2OC(=O)/C=C/C=C/[C@H](C)[C@@H]([C@@H](C)[C@@H](O)[C@H](C)[C@@]3(O)C[C@@H](O[C@H]4C[C@H](O)[C@H](O)[C@H](C)O4)[C@H](CC)[C@@H](C)O3)OC(=O)/C=C/C=C/[C@@H]2C)C[C@H]1O[C@H]1C[C@H](O)[C@H](O)[C@H](C)O1 | – | – | – | – | – | – | – | – | – | – | – | 111 | 117 | 129 | 121 | 118 | 132 | 128 | 121 | 6.11 | 17.5 | 2.97 | – | – | – | – | – | – | – | – | – | – | – |
| CC\12CCC(=O)\C=C1CCC3C2CCC4(C)C3CCC4(O)C#C (stereo not given) | 98.9 | 101 | 106 | 91.1 | 112 | 100 | 98.3 | 98.8 | 77.5 | 86.4 | 88 | 89.9 | 93.2 | 97.4 | 103 | 86.6 | 94.9 | 88.8 | 84 | 87.2 | 88.1 | 74.7 | 99.8 | 101 | 95.8 | 95.5 | 99.6 | 96.1 | 74.9 | 79.2 | 73.9 | 83.5 | 85.7 |
